Source: patent US20090048112A1, “Novel Herbicides” (SYNGENTA LIMITED, priority 2005, published 2009)

Test system: Monocotyledonous and dicotyledonous test plants
Test: Example B1: herbicidal action prior to emergence (pre-emergence), 500 g/ha
Format: in vivo
Conditions: 13 days after application, 0 = no damage, 100 = plants completely dead; for ALOMY herbicidal effect (visual assessment, percentage scale): Alopecurus myosuroides (slender foxtail); for AMARE herbicidal effect (visual assessment, percentage scale): Amaranthus retroflexus (redroot pigweed); for ECHCG herbicidal effect (visual assessment, percentage scale): Echinochloa crus-galli (barnyard grass); for STEME herbicidal effect (visual assessment, percentage scale): Stellaria media (chickweed)
Description: Monocotyledonous and dicotyledonous test plants were sown in seed trays in standard compost. The trays were watered twice daily or as required. The chemicals were applied by track sprayer at the soil surface. The application was carried out with an aqueous suspension of the test substances, prepared as a formulation of 50% acetone in water with 0.5% Tween 20™ (CAS RN 9005-64-5), to achieve a field equivalent of 1000 l/ha. The application rate of the test substances was 500 g/ha. A visual assessment of the herbicidal effect was made at 13 days after application. The following percentage scale was used for assessment: 0, 5, 10, 20, 30, 40, 50, 60, 70, 80, 90, 95, 100 (where 0 is no damage to plants and 100 is plants are completely dead).

SMILES	ALOMY herbicidal effect (visual assessment, percentage scale)	AMARE herbicidal effect (visual assessment, percentage scale)	ECHCG herbicidal effect (visual assessment, percentage scale)	STEME herbicidal effect (visual assessment, percentage scale)
Cn1nc(C(F)(F)F)c(C[S+]([O-])c2ncc(Cl)s2)c1F (racemic) [Compound 1.008]	95%	100%	95%	80%
Cn1nc(C(F)(F)F)c(C[S+]([O-])c2ncc(Br)s2)c1F (racemic) [Compound 1.011]	95%	95%	95%	10%
Cn1nc(C(F)(F)F)c(C[S+]([O-])c2nccs2)c1OCC(F)(F)F (racemic) [Compound 1.048]	80%	95%	95%	80%
Cn1nc(OC(F)F)c(C[S+]([O-])c2ncc(Cl)s2)c1C(F)(F)F (racemic) [Compound 1.054]	95%	100%	95%	30%
Cn1nc(C(F)(F)F)c(C(F)S(=O)(=O)c2ncc(Br)s2)c1Cl (racemic) [Compound No. 1.032]	60%	80%	80%	60%
Cn1nc(C(F)(F)F)c(C(Cl)S(=O)(=O)c2ncc(Cl)s2)c1OCC(F)(F)F (racemic) [Compound No. 1.034]	70%	100%	95%	40%
Cn1nc(C(F)(F)F)c(C(F)(Cl)S(=O)(=O)c2ncc(Cl)s2)c1OCC(F)(F)F (racemic) [Compound No. 1.035]	0%	95%	95%	20%
Cn1nc(C(F)(F)F)c(C(Cl)S(=O)(=O)c2ncc(Br)s2)c1OCC(F)(F)F (racemic) [Compound No. 1.039]	60%	95%	95%	0%
Cn1nc(C(F)(F)F)c(C(Cl)S(=O)(=O)c2ncc(Cl)s2)c1Cl (racemic) [Compound No. 1.043]	0%	80%	95%	0%
Cn1nc(C(F)(F)F)c(C(F)(Cl)S(=O)(=O)c2ncc(Cl)s2)c1Cl (racemic) [Compound No. 1.044]	40%	95%	95%	90%
Cn1nc(C(F)(F)F)c(C(F)S(=O)(=O)c2ncc(Cl)s2)c1Cl (racemic) [Compound No. 1.045]	70%	100%	100%	0%
Cn1nc(C(F)(F)F)c(CS(=O)(=O)c2nc(Br)cs2)c1OCC(F)(F)F [Compound 1.029]	0%	95%	0%	95%
Cn1nc(C(F)(F)F)c(CS(=O)(=O)c2nccs2)c1OCC(F)(F)F [Compound 1.049]	30%	95%	95%	10%
Cn1nc(C(F)(F)F)c(CSc2ncc(Cl)s2)c1F [Compound No. 1.007]	95%	80%	95%	40%
Cn1nc(C(F)(F)F)c(CS(=O)(=O)c2ncc(Cl)s2)c1F [Compound No. 1.009]	0%	95%	95%	0%
Cn1nc(C(F)(F)F)c(CSc2ncc(Br)s2)c1F [Compound No. 1.010]	60%	70%	80%	0%
Cn1nc(C(F)(F)F)c(CS(=O)(=O)c2ncc(Br)s2)c1F [Compound No. 1.012]	70%	90%	95%	0%
Cn1nc(C(F)(F)F)c(CS(=O)(=O)c2ncc(Cl)s2)c1OCC(F)(F)F [Compound No. 1.015]	90%	95%	95%	80%
Cn1nc(C(F)(F)F)c(CS(=O)(=O)c2ncc(Cl)s2)c1Cl [Compound No. 1.018]	60%	100%	95%	0%
Cn1nc(C(F)(F)F)c(C(F)(F)S(=O)(=O)c2ncc(Br)s2)c1OCC(F)(F)F [Compound No. 1.042]	60%	100%	95%	90%
